# According to patent US9212182B2, “Bicyclic sulfonamide compounds as sodium channel inhibitors” (AMGEN INC., priority 2013, dated 2015):
# Target: Nav 1.7 (Homo sapiens (Human), UniProt Q15858)
# Experiment: in-vitro Nav 1.7 PX (IC50)
# Format: cell-based
# Details: not given
# Nav 1.7, sequence (Q15858 whole entry): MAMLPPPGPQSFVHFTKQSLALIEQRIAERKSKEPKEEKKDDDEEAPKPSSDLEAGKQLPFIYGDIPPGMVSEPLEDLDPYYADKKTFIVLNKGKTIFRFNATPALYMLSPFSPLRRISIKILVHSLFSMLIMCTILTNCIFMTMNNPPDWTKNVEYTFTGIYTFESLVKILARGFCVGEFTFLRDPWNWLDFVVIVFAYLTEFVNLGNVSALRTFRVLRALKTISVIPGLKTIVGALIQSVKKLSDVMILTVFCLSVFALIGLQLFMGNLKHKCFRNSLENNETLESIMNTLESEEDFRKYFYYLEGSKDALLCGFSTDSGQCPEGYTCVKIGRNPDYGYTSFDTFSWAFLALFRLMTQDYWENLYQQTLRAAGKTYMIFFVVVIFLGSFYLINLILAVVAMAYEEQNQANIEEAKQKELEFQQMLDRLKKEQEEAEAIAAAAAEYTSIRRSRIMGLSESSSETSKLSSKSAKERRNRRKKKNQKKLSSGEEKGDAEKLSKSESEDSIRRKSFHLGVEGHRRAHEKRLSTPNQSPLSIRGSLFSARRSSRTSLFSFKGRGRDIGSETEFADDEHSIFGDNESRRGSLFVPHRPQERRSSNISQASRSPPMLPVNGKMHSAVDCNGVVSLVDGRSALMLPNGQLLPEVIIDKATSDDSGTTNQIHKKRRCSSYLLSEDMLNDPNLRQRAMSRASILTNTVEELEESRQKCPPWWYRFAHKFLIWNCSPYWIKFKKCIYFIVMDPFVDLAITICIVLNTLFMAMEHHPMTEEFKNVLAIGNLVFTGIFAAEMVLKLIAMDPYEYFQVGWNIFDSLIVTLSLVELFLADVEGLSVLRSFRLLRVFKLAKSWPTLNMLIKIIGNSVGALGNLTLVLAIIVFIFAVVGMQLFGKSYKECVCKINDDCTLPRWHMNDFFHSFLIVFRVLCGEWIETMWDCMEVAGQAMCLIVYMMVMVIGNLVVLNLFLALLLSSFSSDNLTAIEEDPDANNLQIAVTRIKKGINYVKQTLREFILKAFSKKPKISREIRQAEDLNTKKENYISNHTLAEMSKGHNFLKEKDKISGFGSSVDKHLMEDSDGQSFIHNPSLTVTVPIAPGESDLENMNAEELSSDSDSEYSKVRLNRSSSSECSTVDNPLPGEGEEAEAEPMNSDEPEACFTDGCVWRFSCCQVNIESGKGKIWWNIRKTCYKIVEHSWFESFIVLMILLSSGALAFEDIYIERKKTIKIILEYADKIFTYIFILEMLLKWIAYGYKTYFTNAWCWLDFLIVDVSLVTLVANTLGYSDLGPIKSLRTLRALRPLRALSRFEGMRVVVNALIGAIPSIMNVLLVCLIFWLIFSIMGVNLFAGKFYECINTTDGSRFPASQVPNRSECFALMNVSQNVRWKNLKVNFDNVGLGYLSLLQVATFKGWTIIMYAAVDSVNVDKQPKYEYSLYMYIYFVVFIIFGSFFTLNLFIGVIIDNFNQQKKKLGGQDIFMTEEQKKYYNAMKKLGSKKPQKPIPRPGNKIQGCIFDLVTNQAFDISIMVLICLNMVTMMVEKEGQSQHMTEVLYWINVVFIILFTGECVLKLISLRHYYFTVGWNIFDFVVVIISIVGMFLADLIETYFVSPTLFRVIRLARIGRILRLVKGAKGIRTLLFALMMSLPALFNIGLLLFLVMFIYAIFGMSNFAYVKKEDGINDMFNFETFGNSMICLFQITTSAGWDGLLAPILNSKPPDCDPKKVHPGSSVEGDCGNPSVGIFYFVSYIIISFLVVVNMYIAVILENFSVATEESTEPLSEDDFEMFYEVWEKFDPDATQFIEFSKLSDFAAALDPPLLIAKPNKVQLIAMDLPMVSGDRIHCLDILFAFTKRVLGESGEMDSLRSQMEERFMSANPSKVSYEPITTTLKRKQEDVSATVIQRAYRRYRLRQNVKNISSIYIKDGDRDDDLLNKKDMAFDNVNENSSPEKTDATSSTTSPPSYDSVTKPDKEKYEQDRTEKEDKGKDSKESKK
row,Structure (SMILES),IC50
1,"COc1cc(-c2cccc(F)c2)c(Cl)cc1-n1c(=O)cc(C)c2cc(S(=O)(=O)Nc3ccon3)ccc21 [Example 348, P-1-(2-chloro-3′-fluoro-5-methoxy-[1,1′-biphenyl]-4-yl)-N-(isoxazol-3-yl)-4-methyl-2-oxo-1,2-dihydroquinoline-6-sulfonamide]",159 nM
2,"COc1cc(-c2cccc(F)c2)c(C)cc1-n1c(=O)ccc2cc(S(=O)(=O)Nc3ccon3)ccc21 (atropisomer, axis not shown; (P)) [Example 427, (P)-1-(3′-fluoro-5-methoxy-2-methyl-4-biphenylyl)-N-3-isoxazolyl-2-oxo-1,2-dihydro-6-quinolinesulfonamide]",25 nM
3,"COc1cc(-c2cccc(F)c2)c(C)cc1-n1c(=O)cc(C)c2cc(S(=O)(=O)Nc3ccon3)ccc21 (atropisomer, axis not shown; (P)) [Example 568, (P)-1-(3′-fluoro-5-methoxy-2-methyl-4-biphenylyl)-N-3-isoxazolyl-4-methyl-2-oxo-1,2-dihydro-6-quinolinesulfonamide]",92 nM
4,"COc1ccc(-c2cncc(C#N)c2)cc1-n1c(=O)ccc2cc(S(=O)(=O)Nc3ccon3)ccc21 [Example 491, 1-(5-(5-cyano-3-pyridinyl)-2-methoxyphenyl)-N-3-isoxazolyl-2-oxo-1,2-dihydro-6-quinolinesulfonamide]",2070 nM
5,"COc1cc(-c2ccc(Cl)c(C)c2)ccc1-n1c(=O)ccc2cc(S(=O)(=O)Nc3ccon3)ccc21 (atropisomer, axis not shown; (P)) [Example 432, (P)-1-(4′-chloro-3-methoxy-3′-methyl-4-biphenylyl)-N-3-isoxazolyl-2-oxo-1,2-dihydro-6-quinolinesulfonamide]",9 nM

# The next lines start with the values.
row,IC50,Structure (SMILES)
1,1660 nM,"COc1cc(Br)c(F)cc1-n1c(=O)ccc2cc(S(=O)(=O)Nc3cc(OCC(C)C)ncn3)ccc21 (atropisomer, axis not shown; (P)) [Example 1187, (P)-1-(4-bromo-5-fluoro-2-methoxyphenyl)-N-(6-(2-methylpropoxy)-4-pyrimidinyl)-2-oxo-1,2-dihydro-6-quinolinesulfonamide]"
2,111 nM,"COc1nc(OCc2ccc(F)cc2)c(Cl)cc1-n1c(=O)ccc2cc(S(=O)(=O)Nc3ccon3)ccc21 [Example 1214, 1-(5-chloro-6-((4-fluorobenzyl)oxy)-2-methoxy-3-pyridinyl)-N-3-isoxazolyl-2-oxo-1,2-dihydro-6-quinolinesulfonamide]"
3,96 nM,"COc1nc(OCc2ccc(F)c(F)c2)c(Cl)cc1-n1c(=O)ccc2cc(S(=O)(=O)Nc3ccon3)ccc21 [Example 1217, 1-(5-chloro-6-((3,4-difluorobenzyl)oxy)-2-methoxy-3-pyridinyl)-N-3-isoxazolyl-2-oxo-1,2-dihydro-6-quinolinesulfonamide]"
4,24 nM,"COc1nc(OCc2ccc(F)c(C(F)(F)F)c2)c(Cl)cc1-n1c(=O)ccc2cc(S(=O)(=O)Nc3ccon3)ccc21 [Example 1215, 1-(5-chloro-6-((4-fluoro-3-(trifluoromethyl)benzyl)oxy)-2-methoxy-3-pyridinyl)-N-3-isoxazolyl-2-oxo-1,2-dihydro-6-quinolinesulfonamide]"

# Same assay, conditions: in-vitro Nav 1.7 PX data
row,Structure (SMILES),IC50
1,"COc1nc(-c2cc(F)cc(F)c2)c(Cl)cc1-n1c(=O)ccc2cc(S(=O)(=O)Nc3ccon3)ccc21 (atropisomer, axis not shown; (P)) [Example 665, (P)-1-(5-chloro-6-(3,5-difluorophenyl)-2-methoxy-3-pyridinyl)-N-3-isoxazolyl-2-oxo-1,2-dihydro-6-quinolinesulfonamide]",15 nM
2,"COc1cc(-c2ccc(Cl)cc2C)c(F)cc1-n1c(=O)ccc2cc(S(=O)(=O)Nc3ccon3)ccc21 [Example 742, 1-(4′-chloro-2-fluoro-5-methoxy-2′-methyl-4-biphenylyl)-N-3-isoxazolyl-2-oxo-1,2-dihydro-6-quinolinesulfonamide]",7 nM
3,"COc1cc(-c2cccc(C(F)(F)F)c2)ccc1-n1c(=O)ccc2cc(S(=O)(=O)Nc3ncccn3)c(F)cc21 [Example 982, 7-fluoro-1-(3-methoxy-3′-(trifluoromethyl)-4-biphenylyl)-2-oxo-N-2-pyrimidinyl-1,2-dihydro-6-quinolinesulfonamide]",38 nM
4,"COc1cc(-c2cccc(OC(F)(F)F)c2)ccc1-n1c(=O)ccc2cc(S(=O)(=O)Nc3ccon3)ccc21 [Example 781, N-3-isoxazolyl-1-(3-methoxy-3′-(trifluoromethoxy)-4-biphenylyl)-2-oxo-1,2-dihydro-6-quinolinesulfonamide]",10 nM
5,"COc1cc(-c2ccc(F)c(C)c2)c(F)cc1-n1c(=O)ccc2cc(S(=O)(=O)Nc3ncco3)ccc21 [Example 943, 1-(2,4′-difluoro-5-methoxy-3′-methyl-4-biphenylyl)-N-1,3-oxazol-2-yl-2-oxo-1,2-dihydro-6-quinolinesulfonamide]",13 nM
6,"COc1cc(-c2ccc(OC)c(-n3c(=O)ccc4cc(S(=O)(=O)Nc5ccon5)ccc43)c2)ccc1Cl [Example 870, 1-(4′-chloro-3′,4-dimethoxy-3-biphenylyl)-N-3-isoxazolyl-2-oxo-1,2-dihydro-6-quinolinesulfonamide]",23 nM
7,"COc1cc(-c2ccc(F)c(F)c2)c(F)cc1-n1c(=O)ccc2cc(S(=O)(=O)Nc3cc(C)ncn3)ccc21 [Example 938, N-(6-methyl-4-pyrimidinyl)-2-oxo-1-(2,3′,4′-trifluoro-5-methoxy-4-biphenylyl)-1,2-dihydro-6-quinolinesulfonamide]",47 nM
8,"COc1cccc(-c2cc(OC)c(-n3c(=O)ccc4cc(S(=O)(=O)Nc5ccon5)ccc43)cc2F)c1 [Example 709, 1-(2-fluoro-3′,5-dimethoxy-4-biphenylyl)-N-3-isoxazolyl-2-oxo-1,2-dihydro-6-quinolinesulfonamide]",47 nM
9,"COc1cc(-c2cccc(C(F)(F)F)c2)ccc1-n1c(=O)ccc2cc(S(=O)(=O)Nc3cc(C)ncn3)ccc21 [Example 946, 1-(3-methoxy-3′-(trifluoromethyl)-4-biphenylyl)-N-(6-methyl-4-pyrimidinyl)-2-oxo-1,2-dihydro-6-quinolinesulfonamide]",24 nM
10,"COc1cc(-c2ccc(C(F)(F)F)cc2)c(F)cc1-n1c(=O)ccc2cc(S(=O)(=O)Nc3ncccn3)ccc21 [Example 797, 1-(2-fluoro-5-methoxy-4′-(trifluoromethyl)-4-biphenylyl)-2-oxo-N-2-pyrimidinyl-1,2-dihydro-6-quinolinesulfonamide]",43 nM
11,"COc1nc(C#CC2CCCC2)c(Cl)cc1-n1c(=O)ccc2cc(S(=O)(=O)Nc3cccnn3)ccc21 [Example 646, 1-(5-chloro-6-(cyclopentylethynyl)-2-methoxy-3-pyridinyl)-2-oxo-N-3-pyridazinyl-1,2-dihydro-6-quinolinesulfonamide]",1100 nM
12,"COc1cc(-c2ccnc(C)c2)c(F)cc1-n1c(=O)ccc2cc(S(=O)(=O)Nc3ccon3)ccc21 [Example 736, 1-(5-fluoro-2-methoxy-4-(2-methyl-4-pyridinyl)phenyl)-N-3-isoxazolyl-2-oxo-1,2-dihydro-6-quinolinesulfonamide]",2810 nM
13,"COc1cc(-c2cccc(Cl)c2OC)c(F)cc1-n1c(=O)ccc2cc(S(=O)(=O)Nc3ccon3)ccc21 [Example 747, 1-(3′-chloro-2-fluoro-2′,5-dimethoxy-4-biphenylyl)-N-3-isoxazolyl-2-oxo-1,2-dihydro-6-quinolinesulfonamide]",16 nM
14,"COc1ccc(-c2cc(OC)c(-n3c(=O)ccc4cc(S(=O)(=O)Nc5ccon5)ccc43)cc2F)c(F)c1 [Example 702, 1-(2,2′-difluoro-4′,5-dimethoxy-4-biphenylyl)-N-3-isoxazolyl-2-oxo-1,2-dihydro-6-quinolinesulfonamide]",22 nM

# Second part, the molecule after the results:
row,IC50,Structure (SMILES)
1,105 nM,"COc1cc(-c2cc(F)cc(C#N)c2)ccc1-n1c(=O)ccc2cc(S(=O)(=O)Nc3ccon3)ccc21 [Example 1021, 1-(3′-cyano-5′-fluoro-3-methoxy-4-biphenylyl)-N-3-isoxazolyl-2-oxo-1,2-dihydro-6-quinolinesulfonamide]"
2,348 nM,"COc1nc(-c2cc(F)cc(Cl)c2)c(Cl)cc1-n1c(=O)ccc2cc(S(=O)(=O)Nc3ccon3)ccc21 [Example 1071, 1-(5-chloro-6-(3-chloro-5-fluorophenyl)-2-methoxy-3-pyridinyl)-N-3-isoxazolyl-2-oxo-1,2-dihydro-6-quinolinesulfonamide]"
3,4940 nM,"COc1cccc(-c2nc(OC)c(-n3c(=O)ccc4cc(S(=O)(=O)Nc5ccon5)ccc43)cc2Cl)c1 [Example 1093, 1-(5-chloro-2-methoxy-6-(3-methoxyphenyl)-3-pyridinyl)-N-3-isoxazolyl-2-oxo-1,2-dihydro-6-quinolinesulfonamide]"
4,89 nM,"COc1cc(F)cc(-c2ccc(-n3c(=O)ccc4cc(S(=O)(=O)Nc5ncc(F)cn5)ccc43)c(OC)c2)c1 [Example 998, 1-(3′-fluoro-3,5′-dimethoxy-4-biphenylyl)-N-(5-fluoro-2-pyrimidinyl)-2-oxo-1,2-dihydro-6-quinolinesulfonamide]"
5,64 nM,"COc1cc(CC(C)(C)C)c(F)cc1-n1c(=O)ccc2cc(S(=O)(=O)Nc3ccon3)ccc21 [Example 1076, 1-(4-(2,2-dimethylpropyl)-5-fluoro-2-methoxyphenyl)-N-3-isoxazolyl-2-oxo-1,2-dihydro-6-quinolinesulfonamide]"

# Same assay, conditions: in-vitro Nav 1.7 PX data (PatchXpress)
row,IC50,Structure (SMILES)
1,6500 nM,"O=c1ccc2cc(S(=O)(=O)Nc3nncs3)ccc2n1-c1ccc(-c2cc(F)cc(F)c2)cc1C1CC1 [Example 1047, 1-(3-cyclopropyl-3′,5′-difluoro-4-biphenylyl)-2-oxo-N-1,3,4-thiadiazol-2-yl-1,2-dihydro-6-quinolinesulfonamide]"

# Same assay, conditions: in-vitro PatchXpress (PX)
row,IC50,Structure (SMILES)
1,8 nM,"COc1cc(-c2ccc(Cl)c(F)c2)c(F)cc1-n1c(=O)ccc2cc(S(=O)(=O)Nc3ccon3)ccc21 (atropisomer, axis not shown; (M)) [Example 504, (M)-1-(4′-chloro-2,3′-difluoro-5-methoxy-4-biphenylyl)-N-3-isoxazolyl-2-oxo-1,2-dihydro-6-quinolinesulfonamide]"
2,59 nM,"COc1nc(-c2cc(F)cc(F)c2)c(Cl)cc1-n1c(=O)ccc2cc(S(=O)(=O)Nc3ccon3)ccc21 [Example 447, 1-(5-chloro-6-(3,5-difluorophenyl)-2-methoxypyridin-3-yl)-N-(isoxazol-3-yl)-2-oxo-1,2-dihydroquinoline-6-sulfonamide]"
